Measurements published in patent US20260083729A1, “METHODS FOR TREATMENT OF BONE MARROW FAILURE AND RELATED CONDITIONS” (Imago Biosciences, Inc., priority 2022, published 2026).

Legend:
[1] = test system: platelet (PLT) levels; experiment: Complete blood count, platelet (PLT) levels, in treated mice; format: in vivo, mice (C57/BL6); settings: once daily for 7 days, oral gavage
Description: (§1) Animals. Healthy animals with an intact immune system were used for all experiments. All animals were drug and test naïve and not involved in previous procedures. Animals were maintained on a 12 hour light-dark cycle with access to water and standard chow ad libitum. CRADL animal care staff conducted routine husbandry procedures and provided daily care and monitoring of all animals housed in CRADL's animal facilities. 8-week old female C57/BL6 (C57BL/6NCrl) mice were purchased from Charles River. All mice were acclimated for at least 48 hours upon arrival. Mice were assigned to treatment groups based on complete blood counts to achieve congruent profiles, body weight was recorded for dose adjustments, and ear tagged for identification. Investigators were not blinded to the identity of mice or samples. No statistical methods were utilized to determine sample size. The experiments described in this study were designed to use the minimum number of animals required.
(§2) Dosing. To assess the effect of different LSD1 inhibitors on hematopoietic stem and progenitor cells (HSPCs), wild-type mice were administered with Compound 3, Compound 2, or vehicle once daily for 7 days via oral gavage. Administered doses were as indicated in FIGS. 1-5 (Compound 3: 15 and 40 mg/kg, Compound 2, 15, 40, 60, and/or 80 mg/kg).
Compound 3 or Compound 2 (salt) at a dose of 15 mg/kg dose was prepared by weighing out 0.3 mg×1.5 (example correction factor)=0.45 mg per mouse in 200 μl vehicle solution. Each mouse of 20 g received 200 μl of compound in vehicle solution (volume was corrected for body weight of each mouse at time of dosing). Calculations were scaled appropriately for higher doses. Compound was completely dissolved by swirling and gently pipetting in vehicle. Aliquots were stored for daily usage at 4 C in the dark. […]
Processing of bones and blood for analysis. […] Cells in the filtered suspension were counted and ˜2-3×10^6 cells removed for cell staining.
Complete blood counts. Complete blood counts from the peripheral blood sample collected at end of study were measured at IDEXX BioAnalytics.

[2] = test system: LSK cells (HSC/progenitor cells: Lineage−, Sca-1+, c-Kit+); experiment: In vivo expansion of LSK cells in bone marrow of wild-type mice (flow cytometry); parameters: species or system mice (C57/BL6); settings: oral gavage
Description: (§3) The effect of LSD1 inhibitors on HSCPs was investigated in in vivo studies.
as §1, §2
(§4) Drug preparation. As an example of formulation calculations, a correction factor (compound and lot dependent) of 1.5 will be used (e.g., one lot of Compound 2 actual correction factor 1.67; one lot of Compound 3 actual correction factor 1.69). Vehicle is 30% PEG400 (Millipore Sigma cat #8074850058), 5% Cremophor EL (Med Chem Express cat #HY-Y189) in sterile Milli-Q water.
(§5) Compound 3 or Compound 2 (salt) at a dose of 15 mg/kg dose was prepared by weighing out 0.3 mg×1.5 (example correction factor)=0.45 mg per mouse in 200 μl vehicle solution. Each mouse of 20 g received 200 μl of compound in vehicle solution (volume was corrected for body weight of each mouse at time of dosing). Calculations were scaled appropriately for higher doses. Compound was completely dissolved by swirling and gently pipetting in vehicle. Aliquots were stored for daily usage at 4 C in the dark. On the day of dosing, formulations and vehicle were removed from 4 C and allowed to warm to RT for at least 20 minutes before dosing. Formulations were swirled to achieve a homogenous solution prior to administration for 7 days, once daily, via oral gavage.
(§6) Processing of bones and blood for analysis. 24 hours after the last dose was administered, blood was collected via cheek bleed and mice were subsequently sacrificed via CO2 asphyxiation. Bones were separated from the mice, muscle and tissue removed, and bone marrow cells were isolated from mouse femora and tibiae by centrifugation. Red blood cells (RBC) were lysed by adding cold ACK lysis buffer (Thermo Fisher cat #A1049201) and incubating bone marrow cells (or […] of peripheral blood) on ice for 10 minutes. Following RBC lysis, samples were topped up with an appropriate volume of FACS buffer (PBS+2% BSA) and centrifuged at 3000 rpm for 5 minutes. Cell pellet was resuspended in FACS buffer and filtered through a […] filter to remove aggregated cell clumps and debris. Cells in the filtered suspension were counted and ˜2-3×10^6 cells removed for cell staining.
(§7) Flow Cytometry Analysis. For flow staining, @ 2-3×10e6 cells were centrifuged at 400×g, 5 minutes, 4 C in 1.5 ml centrifuge tubes. Supernatant was aspirated and cells were resuspended in 100 μl of staining cock-tail per tube. Tubes were incubated on ice for 30 minutes in the dark. 1 ml of FACS buffer (PBS+2% FBS) was added to each tube and then centrifuged at 400×g, 5 minutes, 4° C. Supernatant was aspirated, and cells were resuspended at 300 μl per tube in 7-AAD solution (5 μl/ml of FACS Buffer). […]

[3] = test system: long-term HSC (LT-HSC) cells; experiment: In vivo expansion of long-term HSC (LT-HSC) cells in bone marrow of wild-type mice (flow cytometry); parameters: species or system mice (C57/BL6); settings: oral gavage
Description: as §3, §1, §2, §4, §5, §6, §7

COc1ccc(-n2nc(NC[C@H]3CCC[C@H](N)C3)cc2-c2ccc(C#N)c(F)c2)cc1 [Compound 2]
effect on complete blood count as evidenced by platelet (PLT) levels ([1]; three higher concentrations): not significantly affected at any dose
effect on complete blood count as evidenced by platelet (PLT) levels ([1]; two concentrations): not significantly affected at either dose
in vivo expansion of LSK cells, fold increase ([2]; 40 mg/kg once daily for 7 days): 1.7 fold
number of LSK cells, treated group ([2]; 40 mg/kg once daily for 7 days): 1714
in vivo expansion of LSK cells, fold increase ([2]; 80 mg/kg once daily for 7 days): 2.3 fold
number of LSK cells, treated group ([2]; 80 mg/kg once daily for 7 days): 2215
in vivo expansion of LT-HSC cells, fold increase ([3]; 40 mg/kg once daily for 7 days): 1.5 fold
number of LT-HSC cells, treated group ([3]; 40 mg/kg once daily for 7 days): 250
in vivo expansion of LT-HSC cells, fold increase ([3]; 80 mg/kg once daily for 7 days): 1.6 fold
number of LT-HSC cells, treated group ([3]; 80 mg/kg once daily for 7 days): 157

CN1CCN(C(=O)[C@H](CCCN[C@@H]2C[C@H]2c2ccc(F)cc2)NC(=O)c2ccc(-n3ccnn3)cc2)CC1 [IMG-7289, bomedemstat]
effect on complete blood count as evidenced by platelet (PLT) levels ([1]; two concentrations): reduced in a dose-dependent manner
in vivo expansion of LSK cells, fold increase ([2]; 15 mg/kg once daily for 7 days): 2 fold
number of LSK cells, treated group ([2]; 15 mg/kg once daily for 7 days): 2545
in vivo expansion of LSK cells, fold increase ([2]; 40 mg/kg once daily for 7 days): 6 fold
in vivo expansion of LT-HSC cells, fold increase ([3]; 15 mg/kg once daily for 7 days): 2 fold
number of LT-HSC cells, treated group ([3]; 15 mg/kg once daily for 7 days): 252
in vivo expansion of LT-HSC cells, fold increase ([3]; 40 mg/kg once daily for 7 days): 7.5 fold
number of LT-HSC cells, treated group ([3]; 40 mg/kg once daily for 7 days): 921
